Measurements as given in patent publication EP3970494A1 (priority 2020, dated 2022).

How the values were obtained:
Assay in all cases: microbe, parasite or virus in culture
Assay type in all cases: cell-based
Septoria tritici = conditions: Zymoseptoria tritici, 168 h
Phytophthora infestans = conditions: 168 h, read-out: Fungal growth at 31 ppm (%) PHYTIN
Fusarium culmorum = conditions: 168 h

Row | SMILES | activity at 31 ppm (Septoria tritici) [%] | activity at 31 ppm (Phytophthora infestans) [%] | activity at 31 ppm (Fusarium culmorum) [%]
1 | CO/N=C(/C(=O)OC)c1cccc(C)c1CO/N=C(\C)c1cccc(OC)n1 [Example 6] | 7 |  | 
2 | CO/N=C(/C(=O)OC)c1cccc(C)c1CO/N=C(\C)c1cc(-c2ccc(F)cc2)sn1 [Example 11, Methyl (2E)-2-[2-[[(E)-1-[5-(4-fluorophenyl)isothiazol-3-yl]ethylideneamino]oxymethyl]-3-methyl-phenyl]-2-methoxyimino-acetate] | 10 |  | 
3 | CNC(=O)/C(=N/OC)c1cccc(C)c1CO/N=C(\C)c1cc(-c2ccc(F)cc2)sn1 [Example 12, (2E)-2-[2-[[(E)-1-[5-(4-Fluorophenyl)isothiazol-3-yl]ethylideneamino]oxymethyl]-3-methyl-phenyl]-2-methoxyimino-N-methyl-acetamide] |  | 2 | 11
4 | CO/N=C(/C(=O)OC)c1cccc(C)c1CO/N=C(\C)c1cc(-c2ccc(F)cc2)on1 [Example 14] |  |  | 20
5 | CNC(=O)/C(=N/OC)c1cccc(C)c1CO/N=C(\C)c1cc(-c2ccc(F)cc2)on1 [Example 15] |  | 0 | 20
6 | CO/N=C(/C(=O)OC)c1cccc(C)c1CO/N=C(\C)c1cc(-c2ccc(Cl)cc2)on1 [Example 18] |  |  | 16
7 | CO/N=C(/C(=O)OC)c1cccc(C)c1CO/N=C(\C)c1cc(-c2ccccc2)on1 [Example 21] |  | 5 | 
8 | CNC(=O)/C(=N/OC)c1cccc(C)c1CO/N=C(\C)c1cc(-c2cccc(C(F)(F)F)c2)on1 [Example 22, (2E)-2-Methoxyimino-N-methyl-2-[3-methyl-2-[[(E)-1-[5-[3-(trifluoromethyl)phenyl]-isoxazol-3-yl]ethylideneamino]oxymethyl]phenyl]acetamide] |  | 17 | 
9 | CNC(=O)/C(=N/OC)c1cccc(C)c1CO/N=C(\C)c1cc(-c2ccccc2)on1 [Example 23] |  | 1 | 5
10 | CO/N=C(/C(=O)OC)c1cccc(C)c1CO/N=C(\C)c1cc(-c2ccccc2)sn1 [Example 36] |  | 10 | 
11 | CNC(=O)/C(=N/OC)c1cccc(C)c1CO/N=C(\C)c1cc(-c2cccc(C(F)(F)F)c2)sn1 [Example 39] |  | 8 | 14
12 | CO/N=C(/C(=O)OC)c1cccc(C)c1CO/N=C(\C)c1cc(C(F)(F)F)cc(Cl)n1 [Example 42] |  |  | 10
13 | CNC(=O)/C(=N/OC)c1cccc(C)c1CO/N=C(\C)c1ccnc(C(F)(F)F)c1 [Example 48] |  | 1 | 17
14 | CO/N=C(/C(=O)OC)c1cccc(C)c1CO/N=C(\C)c1cn(C)nc1C(F)F [Example 49] |  | 0 | 17
15 | CNC(=O)/C(=N/OC)c1cccc(C)c1CO/N=C(\C)c1cn(C)nc1C(F)F [Example 50] |  | 0 | 18
16 | CNC(=O)/C(=N/OC)c1cccc(C)c1CO/N=C(\C)c1cn(C)nc1C(F)(F)F [Example 52] |  |  | 12
17 | CNC(=O)/C(=N/OC)c1cccc(C)c1CO/N=C(\C)c1ncc(C(F)(F)F)s1 [Example 53, (2E)-2-Methoxyimino-N-methyl-2-[3-methyl-2-[[(E)-1-[5-(trifluoromethyl)thiazol-2-yl]ethylideneamino]oxymethyl]phenyl]acetamide] |  |  | 21
18 | C#Cc1cnc(/C(C)=N/OCc2c(C)cccc2/C(=N\OC)C(=O)NC)s1 [Example 61] |  | 19 | 11
19 | CNC(=O)/C(=N/OC)c1cccc(C)c1CO/N=C(\C)c1cc(C(F)F)nc(C)n1 [Example 62] |  | 0 | 11
20 | CNC(=O)/C(=N/OC)c1cccc(C)c1CO/N=C(\C)c1cc(C#N)cc(Cl)n1 [Example 63] |  | 0 | 18
21 | CNC(=O)/C(=N/OC)c1cccc(C)c1CO/N=C(\C)c1ccc(C#CC2CC2)nc1 [Example 69] |  | 0 | 11
22 | CO/N=C(/C(=O)OC)c1cccc(C)c1CO/N=C(\C)c1cncc(F)c1 [Example 75] |  | 0 | 
23 | CNC(=O)/C(=N/OC)c1cccc(C)c1CO/N=C(\C)c1cncc(F)c1 [Example 76] |  | 0 | 16
24 | CNC(=O)/C(=N/OC)c1cccc(C)c1CO/N=C(\C)c1ncccc1F [Example 77] |  | 0 | 11
25 | CNC(=O)/C(=N/OC)c1cccc(C)c1CO/N=C(\C)c1ncc(-c2ccc(F)cc2)s1 [Example 78, (2E)-2-[2-[[(E)-1-[5-(4-fluorophenyl)thiazol-2-yl]ethylideneamino]oxymethyl]-3-methyl-phenyl]-2-methoxyimino-N-methyl-acetamide] |  | 3 | 16
26 | CO/N=C(/C(=O)OC)c1cccc(C)c1CO/N=C(\C)c1ncc(-c2ccc(F)cc2)s1 [Example 79, Methyl (2E)-2-[2-[[(E)-1-[5-(4-fluorophenyl)thiazol-2-yl]ethylideneamino]oxymethyl]-3-methyl-phenyl]-2-methoxyimino-acetate] |  | 17 | 13
27 | CNC(=O)/C(=N/OC)c1cccc(C)c1CO/N=C(\C)c1cc(C(F)(F)F)cc(C)n1 [Example 80] |  | 0 | 16

Row | SMILES | activity at 31 ppm (Septoria tritici) [%] | activity at 31 ppm (Phytophthora infestans) [%] | activity at 31 ppm (Fusarium culmorum) [%]
28 | CNC(=O)/C(=N/OC)c1cccc(C)c1CO/N=C(\C)c1cccc(C)n1 [Example 81] |  | 0 | 9
29 | CO/N=C(/C(=O)OC)c1cccc(C)c1CO/N=C(\C)c1ccc(Cl)c(C(F)(F)F)c1 [Example 82] |  | 3 | 17
30 | CNC(=O)/C(=N/OC)c1cccc(C)c1CO/N=C(\C)c1cncc(C(F)(F)F)c1 [Example 85, (2E)-2-methoxyimino-N-methyl-2-[3-methyl-2-[[(E)-1-[5-(trifluoromethyl)-3-pyridyl]-ethylideneamino]oxymethyl]phenyl]acetamide] |  | 0 | 16
31 | CNC(=O)/C(=N/OC)c1cccc(C)c1CO/N=C(\C)c1cc(C(F)(F)F)cc(C#N)n1 [Example 86] |  | 0 | 16
32 | CNC(=O)/C(=N/OC)c1cccc(C)c1CO/N=C(\C)c1cncc(C(F)(F)F)n1 [Example 89, (2E)-2-Methoxyimino-N-methyl-2-[3-methyl-2-[[(E)-1-[6-(trifluoromethyl)pyrazin-2-yl]ethylideneamino]oxymethyl]phenyl]acetamide] |  | 0 | 13
33 | CNC(=O)/C(=N/OC)c1cccc(C)c1CO/N=C(\C)c1cc(N2CC(F)(F)C2)ccn1 [Example 90] |  | 0 | 
34 | CNC(=O)/C(=N/OC)c1cccc(C)c1CO/N=C(\C)c1ccc(Cl)nn1 [Example 92] |  | 0 | 17
35 | CNC(=O)/C(=N/OC)c1cccc(C)c1CO/N=C(\C)c1nc(C(F)(F)F)cs1 [Example 95] |  |  | 17
36 | CNC(=O)/C(=N/OC)c1cccc(C)c1CO/N=C(\C)c1cnc(C(F)(F)F)cn1 [Example 97, (2E)-2-methoxyimino-N-methyl-2-[3-methyl-2-[[(E)-1-[5-(trifluoromethyl)pyrazin-2-yl]ethylideneamino]oxymethyl]phenyl]acetamide] |  | 0 | 17
37 | CNC(=O)/C(=N/OC)c1cccc(C)c1CO/N=C(\C)c1cc(C(F)(F)F)c(C#N)cn1 [Example 99] |  | 20 | 
38 | CNC(=O)/C(=N/OC)c1cccc(C)c1CO/N=C(\C)c1cccc(F)n1 [Example 107] |  | 0 | 16
39 | CNC(=O)/C(=N/OC)c1cccc(C)c1CO/N=C(/c1nccs1)C1CC1 [Example 110] |  | 0 | 
40 | CO/N=C(/C(=O)OC)c1cccc(C)c1CO/N=C(\C)c1ccc(C#CC2CC2)cn1 [Example 111] |  | 15 | 
41 | CNC(=O)/C(=N/OC)c1cccc(C)c1CO/N=C(\C)c1ccc(C#CC2CC2)cn1 [Example 112] |  | 2 | 21
42 | CNC(=O)/C(=N/OC)c1cccc(C)c1CO/N=C(\C)c1csc(C(F)(F)F)n1 [Example 115] |  | 0 | 13
43 | CO/N=C(/C(=O)OC)c1cccc(C)c1CO/N=C(\C)c1cc(C(F)(F)F)nn1C [Example 117, Methyl (2E)-2-methoxyimino-2-[3-methyl-2-[[(E)-1-[2-methyl-5-(trifluoromethyl)pyrazol-3-yl]ethylideneamino]oxymethyl]phenyl]acetate] |  |  | 18
44 | CO/N=C(/C(=O)OC)c1cccc(C)c1CO/N=C(\C)c1ncc(C(F)(F)F)s1 [Example 123, Methyl (2E)-2-methoxyimino-2-[3-methyl-2-[[(E)-1-[5-(trifluoromethyl)thiazol-2-yl]-ethylideneamino]oxymethyl]phenyl]acetate] |  |  | 17
45 | CO/N=C(/C(=O)OC)c1cccc(C)c1CO/N=C(\C)c1cscn1 [Example 126] |  | 0 | 
46 | CNC(=O)/C(=N/OC)c1cccc(C)c1CO/N=C(\C)c1cscn1 [Example 127] |  | 0 | 
47 | CO/N=C(/C(=O)OC)c1cccc(C)c1CO/N=C(\C)c1ccccn1 [Example 129] |  | 0 | 
48 | CO/N=C(/C(=O)OC)c1cccc(C)c1CO/N=C(\C)c1ccncc1 [Example 130] |  | 0 | 17
49 | CNC(=O)/C(=N/OC)c1cccc(C)c1CO/N=C(\C)c1ccncc1 [Example 134] |  | 0 | 20
50 | CNC(=O)/C(=N/OC)c1cccc(C)c1CO/N=C(\C)c1cccnc1 [Example 135] |  | 0 | 19
51 | C=Cc1cnc(/C(C)=N/OCc2c(C)cccc2/C(=N\OC)C(=O)NC)s1 [Example 144] |  |  | 14
52 | CNC(=O)/C(=N/OC)c1cccc(C)c1CO/N=C(/c1nccs1)C(F)F [Example 154] |  |  | 14
53 | CO/N=C(/C(=O)OC)c1cccc(C)c1CO/N=C(\C)c1cnccc1C(F)(F)F [Example 155] |  |  | 18
